According to the supplement of paper PMC11451515:

Tested on: P12-Ichikawa
Assay: cell viability relative to DMSO control; higher = less cytotoxic
Settings: 48 h
Summary of the method: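 Viability, reported as a per-plate percentage of DMSO wells with cell-free wells as background, came from CellTiter-Glo One luminescence. Reading took place after 48 h at 37°C. Before that, NOMO1 or SEM (500 cells/well) or P12-Ichikawa (1000 cells/well) leukemia cells, adapted for at least four passages in each medium, were seeded in 1536-well plates (5 μl) and pin-dosed with library compounds in DMSO, 47 μM to 0.79 nM over 11 threefold points.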

[1] = HPLM + 10% dialyzed FBS, 0.000781 µM
[2] = HPLM + 10% dialyzed FBS, 0.00234 µM
[3] = HPLM + 10% dialyzed FBS, 0.00702 µM
[4] = HPLM + 10% dialyzed FBS, 0.0211 µM
[5] = HPLM + 10% dialyzed FBS, 0.0632 µM
[6] = HPLM + 10% dialyzed FBS, 0.19 µM
[7] = HPLM + 10% dialyzed FBS, 0.569 µM
[8] = HPLM + 10% dialyzed FBS, 1.71 µM
[9] = HPLM + 10% dialyzed FBS, 5.12 µM
[10] = HPLM + 10% dialyzed FBS, 15.4 µM
[11] = HPLM + 10% dialyzed FBS, 46.1 µM
[12] = RPMI 5 mM glucose + 10% FBS, 0.000781 µM
[13] = RPMI 5 mM glucose + 10% FBS, 0.00234 µM
[14] = RPMI 5 mM glucose + 10% FBS, 0.00702 µM
[15] = RPMI 5 mM glucose + 10% FBS, 0.0211 µM
[16] = RPMI 5 mM glucose + 10% FBS, 0.0632 µM
[17] = RPMI 5 mM glucose + 10% FBS, 0.19 µM
[18] = RPMI 5 mM glucose + 10% FBS, 0.569 µM
[19] = RPMI 5 mM glucose + 10% FBS, 1.71 µM
[20] = RPMI 5 mM glucose + 10% FBS, 5.12 µM
[21] = RPMI 5 mM glucose + 10% FBS, 15.4 µM
[22] = RPMI 5 mM glucose + 10% FBS, 46.1 µM
[23] = RPMI 5 mM glucose + 10% dialyzed FBS, 0.000781 µM
[24] = RPMI 5 mM glucose + 10% dialyzed FBS, 0.00234 µM
[25] = RPMI 5 mM glucose + 10% dialyzed FBS, 0.00702 µM
[26] = RPMI 5 mM glucose + 10% dialyzed FBS, 0.0211 µM
[27] = RPMI 5 mM glucose + 10% dialyzed FBS, 0.0632 µM
[28] = RPMI 5 mM glucose + 10% dialyzed FBS, 0.19 µM
[29] = RPMI 5 mM glucose + 10% dialyzed FBS, 0.569 µM
[30] = RPMI 5 mM glucose + 10% dialyzed FBS, 1.71 µM
[31] = RPMI 5 mM glucose + 10% dialyzed FBS, 5.12 µM
[32] = RPMI 5 mM glucose + 10% dialyzed FBS, 15.4 µM
[33] = RPMI 5 mM glucose + 10% dialyzed FBS, 46.1 µM

| SMILES | cell viability [1] [%] | cell viability [2] [%] | cell viability [3] [%] | cell viability [4] [%] | cell viability [5] [%] | cell viability [6] [%] | cell viability [7] [%] | cell viability [8] [%] | cell viability [9] [%] | cell viability [10] [%] | cell viability [11] [%] | cell viability [12] [%] | cell viability [13] [%] | cell viability [14] [%] | cell viability [15] [%] | cell viability [16] [%] | cell viability [17] [%] | cell viability [18] [%] | cell viability [19] [%] | cell viability [20] [%] | cell viability [21] [%] | cell viability [22] [%] | cell viability [23] [%] | cell viability [24] [%] | cell viability [25] [%] | cell viability [26] [%] | cell viability [27] [%] | cell viability [28] [%] | cell viability [29] [%] | cell viability [30] [%] | cell viability [31] [%] | cell viability [32] [%] | cell viability [33] [%] |
| --- | --- | --- | --- | --- | --- | --- | --- | --- | --- | --- | --- | --- | --- | --- | --- | --- | --- | --- | --- | --- | --- | --- | --- | --- | --- | --- | --- | --- | --- | --- | --- | --- | --- |
| NC[C@@H]1O[C@H](O[C@H]2[C@@H](O)[C@H](O[C@@H]3[C@@H](O)[C@H](N)C[C@H](N)[C@H]3O[C@H]3O[C@H](CN)[C@@H](O)[C@H](O)[C@H]3N)O[C@@H]2CO)[C@H](N)[C@@H](O)[C@@H]1O.O=S(=O)(O)O.O=S(=O)(O)O.O=S(=O)(O)O | 108 | 96.4 | 108 | 107 | 105 | 107 | 103 | 103 | 107 | 99.5 | 98.3 | 102 | 97.9 | 104 | 98 | 103 | 97.6 | 101 | 98 | 100 | 96.4 | 96 | 105 | 100 | 105 | 103 | 96.8 | 102 | 102 | 93.3 | 94.6 | 97.9 | 93.4 |
| N#Cc1ccc(Oc2ccc3c(c2)COB3O)cc1 | 112 | 119 | 123 | 90.6 | 129 | 125 | 125 | 102 | 81.5 | 80.6 | 33.9 | 117 | 120 | 127 | 81.7 | 135 | 125 | 139 | 138 | 123 | 124 | 53.1 | 119 | 117 | 113 | 83.9 | 132 | 120 | 135 | 139 | 130 | 124 | 38.6 |
| O=C(CCCCCCC(=O)Nc1cccnc1)NO | 93 | 99.9 | 96.9 | 96.9 | 105 | 109 | 99.5 | 90.8 | 82.1 | 12.2 | 4.36 | 82.5 | 95.6 | 93.7 | 93.4 | 97.5 | 95.4 | 99.6 | 85.7 | 76.1 | 9.59 | 3.79 | 86.9 | 92.8 | 90.7 | 91.9 | 94.7 | 95.1 | 94.3 | 85.2 | 73.9 | 10 | 3.83 |
| Cc1ccccc1C(OCCN(C)C)c1ccccc1 (stereo not drawn) | 106 | 118 | 117 | 110 | 113 | 118 | 107 | 129 | 127 | 123 | 123 |  |  |  |  |  |  |  |  |  |  |  | 114 | 126 | 118 | 123 | 121 | 113 | 124 | 131 | 124 | 128 | 116 |
| CC(C)(S)[C@@H](N)C(=O)O | 108 | 112 | 115 | 120 | 106 | 120 | 113 | 122 | 117 | 115 | 108 | 100 | 109 | 114 | 121 | 96.1 | 112 | 118 | 121 | 115 | 125 | 99.5 | 104 | 110 | 103 | 115 | 98 | 109 | 107 | 112 | 114 | 111 | 95.8 |
| c1ccc2c(Cc3c[nH]c4ccccc34)c[nH]c2c1 | 94.9 | 101 | 93.7 | 95.8 | 97 | 95.4 | 95.1 | 91.1 | 89.7 | 87.4 | 29.9 | 100 | 93.3 | 95 | 92.2 | 82.2 | 90.4 | 86.7 | 91.2 | 88.7 | 89.3 | 32.8 | 86 | 94.3 | 92.2 | 84.8 | 89.6 | 92 | 96.8 | 94 | 86.3 | 85.2 | 38 |
| COc1cccc2c1C(=O)c1c(O)c3c(c(O)c1C2=O)C[C@@](O)(C(=O)CO)C[C@@H]3O[C@H]1C[C@H](N)[C@H](O[C@H]2CCCCO2)[C@H](C)O1 | 122 | 127 | 123 | 123 | 115 | 125 | 121 | 92.3 | 9.81 | 113 | 99 | 122 | 122 | 120 | 127 | 117 | 122 | 106 | 70.2 | 6.23 | 108 | 94.6 | 125 | 121 | 102 | 128 | 117 | 114 | 97.5 | 71.5 | 7.42 | 93 | 84.7 |
| CC(NC(C)(C)C)C(=O)c1cccc(Cl)c1 (stereo not drawn) | 114 | 113 | 117 | 118 | 117 | 111 | 120 | 124 | 122 | 115 | 115 |  |  |  |  |  |  |  |  |  |  |  | 114 | 127 | 119 | 123 | 123 | 128 | 125 | 124 | 121 | 118 | 108 |
| C[C@@H](NCCCc1cccc(C(F)(F)F)c1)c1cccc2ccccc12 | 120 | 123 | 117 | 125 | 109 | 118 | 114 | 118 | 113 | 100 | 115 |  |  |  |  |  |  |  |  |  |  |  |  |  |  |  |  |  |  |  |  |  |  |
